By IC50 is commonly meant the midpoint of a concentration-inhibition curve. Read a low IC50 as greater potency.

GST tagged IRAK-4, sequence (Q9NWZ3 whole entry): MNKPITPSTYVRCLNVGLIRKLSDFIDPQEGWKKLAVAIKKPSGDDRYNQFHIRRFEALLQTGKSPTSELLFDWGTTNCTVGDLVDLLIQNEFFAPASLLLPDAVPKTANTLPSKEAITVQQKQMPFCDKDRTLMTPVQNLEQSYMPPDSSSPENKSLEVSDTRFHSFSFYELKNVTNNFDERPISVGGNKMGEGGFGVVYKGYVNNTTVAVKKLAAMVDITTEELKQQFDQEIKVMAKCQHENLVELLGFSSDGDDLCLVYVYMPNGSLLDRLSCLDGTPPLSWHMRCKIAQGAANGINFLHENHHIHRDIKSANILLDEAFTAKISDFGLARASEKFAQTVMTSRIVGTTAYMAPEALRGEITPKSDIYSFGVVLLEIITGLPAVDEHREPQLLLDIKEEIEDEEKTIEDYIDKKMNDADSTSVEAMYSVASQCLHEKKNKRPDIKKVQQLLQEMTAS

One assay has as its target GST tagged IRAK-4 (Homo sapiens (Human), UniProt Q9NWZ3). Briefly: IRAK-4 Kinase Assay (IMAP fluorescence polarization). It counts as biochemical. Particulars: 100 μM ATP, 30 minutes at 25° C. The protocol: The kinase activity of IRAK-4 is determined by its ability to catalyze the phosphorylation of a fluorescent polypeptide substrate. The extent of phosphorylation is measured using the IMAP technology (Molecular Devices) where the phosphorylated fluorescent substrate binds to the large M(III)-based nanoparticles which reduces the rotational speed of the substrate and thus increases its fluorescent polarization (FP).
20 μl reaction mixture contains 10 mM TriHCl, pH 7.2, 0.5 nM GST tagged IRAK-4 (SignalChem), 100 nM fluorescent peptide substrate (RP7030, Molecular Devices), 100 μM ATP, 1 mM DTT, 1 mM MgCl2, and 0.01% Tween 20. The reaction is initiated by the addition of ATP. After incubation for 30 minutes at 25° C., 60 μl of Progressive IMAP Reagent (Molecular Devices) is added to stop the reaction. Change in RP7030's FP is determined by a FP reader (Analyst HT, LH, BioSystems).
`Cc1ccc(-n2nc(-c3ccc(S(C)(=O)=O)cc3)cc2NC(=O)c2cnn3cccnc23)cc1` [Example 134, N-(3-(4-(methylsulfonyl)phenyl)-1-(p-tolyl)-1H-pyrazol-5-yl)pyrazolo[1,5-a]pyrimidine-3-carboxamide] registered an IC50 below 0.1 µM.

As to `CNS(=O)(=O)c1ccc(-c2cc(NC(=O)c3cnn4cc(Cl)cnc34)n(-c3ccc(C)cn3)n2)cc1` [Example 196, 6-chloro-N-(1-(5-methylpyridin-2-yl)-3-(4-(N-methylsulfamoyl)phenyl)-1H-pyrazol-5-yl)pyrazolo[1,5-a]pyrimidine-3-carboxamide], the IC50 is below 0.1 µM. On the same count and under the same terms, for `COc1ccc(-n2nc(C3CCN(S(C)(=O)=O)CC3)cc2NC(=O)c2cnn3cccnc23)c(F)c1` [Example 64, N-(1-(2-fluoro-4-methoxyphenyl)-3-(1-(methylsulfonyl)piperidin-4-yl)-1H-pyrazol-5-yl)pyrazolo[1,5-a]pyrimidine-3-carboxamide] the value was below 0.1 µM.

In turn, `COc1ccc(-n2nc(C3CCN(S(=O)(=O)C(C)C)CC3)cc2NC(=O)c2cnn3cccnc23)cc1` [Example 23, N-(3-(1-(isopropylsulfonyl)piperidin-4-yl)-1-(4-methoxyphenyl)-1H-pyrazol-5-yl)pyrazolo[1,5-a]pyrimidine-3-carboxamide] came in with an IC50 below 0.1 µM. The same measure, in the same setting: for `[2H]C([2H])([2H])c1ccc(-n2nc(C3CCN(S(C)(=O)=O)CC3)cc2NC(=O)c2cnn3cccnc23)nc1` [Example 155, N-(1-(5-trideuteromethylpyridin-2-yl)-3-(1-(methylsulfonyl)piperidin-4-yl)-1H-pyrazol-5-yl)pyrazolo[1,5-a]pyrimidine-3-carboxamide] the value was below 0.1 µM. On the same count and under the same terms, for `CS(=O)(=O)N1CCC(c2cc(NC(=O)c3cnn4cccnc34)n(-c3ccc(C4CC4)cc3F)n2)CC1` [Example 73, N-(1-(4-cyclopropyl-2-fluorophenyl)-3-(1-(methylsulfonyl)piperidin-4-yl)-1H-pyrazol-5-yl)pyrazolo[1,5-a]pyrimidine-3-carboxamide] the value was below 0.1 µM; for `Cc1ccc(-n2nc(C3CCN(S(C)(=O)=O)CC3)cc2NC(=O)c2cnn3cccnc23)c(F)c1` [Example 57, N-(1-(2-fluoro-4-methylphenyl)-3-(1-(methylsulfonyl)piperidin-4-yl)-1H-pyrazol-5-yl)pyrazolo[1,5-a]pyrimidine-3-carboxamide], below 0.1 µM.

On to `O=C(Nc1cc(C2CCNCC2)nn1-c1nccs1)c1cnn2cccnc12` [Example 189, N-(3-(piperidin-4-yl)-1-(thiazol-2-yl)-1H-pyrazol-5-yl)pyrazolo[1,5-a]pyrimidine-3-carboxamide], for which the IC50 was below 0.1 µM.

With `Cc1ccc(-n2nc(C3CCNCC3)cc2NC(=O)c2cnn3cccnc23)cc1` [Example 7, N-(3-(piperidin-4-yl)-1-(p-tolyl)-1H-pyrazol-5-yl)pyrazolo[1,5-a]pyrimidine-3-carboxamide], the half-inhibitory concentration (IC50) is below 0.1 µM. Still for that read-out and setting: for `C[C@H](N)c1ccc(-n2nc(C3CCN(S(C)(=O)=O)CC3)cc2NC(=O)c2cnn3cccnc23)nc1` [Example 164, (S)—N-(1-(5-(1-aminoethyl)pyridin-2-yl)-3-(1-(methylsulfonyl)piperidin-4-yl)-1H-pyrazol-5-yl)pyrazolo[1,5-a]pyrimidine-3-carboxamide] the value was below 0.1 µM; for `CCN1CCC(N2CCC(c3cc(NC(=O)c4cnn5cccnc45)n(-c4ccc(C)cn4)n3)CC2)CC1` [Example 279, N-[3-(1′-ethyl-1,4′-bipiperidin-4-yl)-1-(5-methylpyridin-2-yl)-1H-pyrazol-5-yl]pyrazolo[1,5-a]pyrimidine-3-carboxamide], below 0.1 µM.

In the case of `Cc1ccc(-n2nc(N3CCN(S(C)(=O)=O)CC3)cc2NC(=O)c2cnn3cccnc23)nc1` [Example 199, N-(1-(5-methylpyridin-2-yl)-3-(4-(methylsulfonyl)piperazin-1-yl)-1H-pyrazol-5-yl)pyrazolo[1,5-a]pyrimidine-3-carboxamide], the 50% inhibitory concentration (IC50) is below 0.1 µM.

The same assay, now with this note: 100 μM ATP, 30 minutes at 25° C.; μM.
Take `Cc1ccc(-n2nc(C3CCN(S(=O)(=O)C4CCCC4)CC3)cc2NC(=O)c2cnn3cccnc23)cc1` [Example 25, N-(3-(1-(cyclopentylsulfonyl)piperidin-4-yl)-1-(p-tolyl)-1H-pyrazol-5-yl)pyrazolo[1,5-a]pyrimidine-3-carboxamide]: the IC50 was below 1 µM.

For the molecule `Cc1ccc(-n2nc(C3CCN(C)CC3)cc2NC(=O)c2cnn3cc(Br)cnc23)cc1` [Example 111, 6-bromo-N-(3-(1-methylpiperidin-4-yl)-1-(p-tolyl)-1H-pyrazol-5-yl)pyrazolo[1,5-a]pyrimidine-3-carboxamide], the concentration for half-maximal inhibition (IC50) was below 1 µM. Still for that read-out and setting: with `Cc1ccc(-n2nc(C3(C)CCNCC3)cc2NC(=O)c2cnn3cccnc23)cc1` [Example 91, N-(3-(4-methylpiperidin-4-yl)-1-(p-tolyl)-1H-pyrazol-5-yl)pyrazolo[1,5-a]pyrimidine-3-carboxamide] the figure was below 1 µM; with `Cc1ccc(-n2nc(C3CCN(S(=O)(=O)c4ccc(F)cc4F)CC3)cc2NC(=O)c2cnn3cccnc23)cc1` [Example 370, N-[3-{1-[(2,4-difluorophenyl)sulfonyl]piperidin-4-yl}-1-(4-methylphenyl)-1H-pyrazol-5-yl]pyrazolo[1,5-a]pyrimidine-3-carboxamide], below 1 µM; with `Cc1ccc(-n2nc(-c3conc3C)cc2NC(=O)c2cnn3cccnc23)cc1` [Example 334, N-[3-(3-methylisoxazol-4-yl)-1-(4-methylphenyl)-1H-pyrazol-5-yl]pyrazolo[1,5-a]pyrimidine-3-carboxamide], below 1 µM.

In turn, `Cc1ccc(-n2nc(C3CCN(Cc4nccs4)CC3)cc2NC(=O)c2cnn3cccnc23)cc1` [Example 222, N-{1-(4-methylphenyl)-3-[1-(1,3-thiazol-2-ylmethyl)piperidin-4-yl]-1H-pyrazol-5-yl}pyrazolo[1,5-a]pyrimidine-3-carboxamide] showed an IC50 below 1 µM. The same measure, in the same setting: for `Cc1ccc(-n2nc(C3CCN(C(C)c4nccs4)CC3)cc2NC(=O)c2cnn3cccnc23)cc1` (stereo not drawn) [Example 217, N-[1-(4-methylphenyl)-3-{1-[1-(1,3-thiazol-2-yl)ethyl]piperidin-4-yl}-1H-pyrazol-5-yl]pyrazolo[1,5-a]pyrimidine-3-carboxamide] the value was below 1 µM; for `Cc1ccc(-n2nc(C3(C)CCN(S(C)(=O)=O)CC3)cc2NC(=O)c2cnn3cccnc23)cc1` [Example 92, N-(3-(4-methyl-1-(methylsulfonyl)piperidin-4-yl)-1-(p-tolyl)-1H-pyrazol-5-yl)pyrazolo[1,5-a]pyrimidine-3-carboxamide], above 1 µM; for `N#Cc1ccc(-n2nc(C3CCNCC3)cc2NC(=O)c2cnn3cccnc23)cc1` [Example 12, N-(1-(4-cyanophenyl)-3-(piperidin-4-yl)-1H-pyrazol-5-yl)pyrazolo[1,5-a]pyrimidine-3-carboxamide], above 1 µM. On the same count and under the same terms, for `O=C(Nc1cc(-c2ccncc2)nn1-c1ccc(F)cc1)c1cnn2cccnc12` [Example 126, N-(1-(4-fluorophenyl)-3-(pyridin-4-yl)-1H-pyrazol-5-yl)pyrazolo[1,5-a]pyrimidine-3-carboxamide] the value was below 1 µM; for `Cc1ccc(-n2nc(-c3ccc(=O)n(C)c3)cc2NC(=O)c2cnn3cccnc23)cc1` [Example 337, N-[3-(1-methyl-6-oxo-1,6-dihydropyridin-3-yl)-1-(4-methylphenyl)-1H-pyrazol-5-yl]pyrazolo[1,5-a]pyrimidine-3-carboxamide], below 1 µM; for `Cc1ccc(-n2nc(-c3cnn(CCS(C)(=O)=O)c3)cc2NC(=O)c2cnn3cccnc23)cc1` [Example 333, N-{1-(4-methylphenyl)-1′-[2-(methylsulfonyl)ethyl]-1H,1′H-3,4′-bipyrazol-5-yl}pyrazolo[1,5-a]pyrimidine-3-carboxamide], below 1 µM.

For `O=C(Nc1cc(C2CCNCC2)nn1-c1ccc(F)cc1)c1cnn2cccnc12` [Example 10, N-(1-(4-fluorophenyl)-3-(piperidin-4-yl)-1H-pyrazol-5-yl)pyrazolo[1,5-a]pyrimidine-3-carboxamide], the IC50 was below 1 µM.

The molecule `COc1cc(-c2cc(NC(=O)c3cnn4cccnc34)n(-c3ccc(C)cc3)n2)ccn1` [Example 129, N-(3-(2-methoxypyridin-4-yl)-1-(p-tolyl)-1H-pyrazol-5-yl)pyrazolo[1,5-a]pyrimidine-3-carboxamide] gave an IC50 below 1 µM. Same read-out and setting: for `Cc1ccc(-n2nc(C3CCC(C(F)(F)F)CC3)cc2NC(=O)c2cnn3cccnc23)cc1` (stereo not drawn) [Example 97, N-(1-(p-tolyl)-3-(4-(trifluoromethyl)cyclohexyl)-1H-pyrazol-5-yl)pyrazolo[1,5-a]pyrimidine-3-carboxamide] the value was above 1 µM; for `Cc1ccc(-n2nc(-c3c(F)cccc3OCc3ccccc3)cc2NC(=O)c2cnn3cccnc23)cc1` [Example 339, N-{3-[2-(benzyloxy)-6-fluorophenyl]-1-(4-methylphenyl)-1H-pyrazol-5-yl}pyrazolo[1,5-a]pyrimidine-3-carboxamide], below 1 µM. The same measure, in the same setting: with `COc1cc(NC(=O)c2cnn3cccnc23)n(-c2ccc(C)cn2)n1` [Example 182, N-(3-methoxy-1-(5-methylpyridin-2-yl)-1H-pyrazol-5-yl)pyrazolo[1,5-a]pyrimidine-3-carboxamide] the figure was below 1 µM. The same measure, in the same setting: for `Cc1ccc(-n2nc(C3CN(Cc4cnccn4)C3)cc2NC(=O)c2cnn3cccnc23)cc1` [Example 304, N-{1-(4-methylphenyl)-3-[1-(pyrazin-2-ylmethyl)azetidin-3-yl]-1H-pyrazol-5-yl}pyrazolo[1,5-a]pyrimidine-3-carboxamide] the value was below 1 µM.

(Values after patent US9169260B2 (MERCK SHARP & DOHME CORP., priority 2011, dated 2015).)
